{"source": "patent US20140221490A1", "about": "“METHODS OF TREATING PAIN” (Hospira, Inc., priority 2011, published 2014)", "key": {"[1]": {"tested_on": "patients after orthopedic surgery", "test": "Orthopedic surgery trial: safety (adverse events)", "type": "in vivo, human", "experimental": "The diclofenac formulation was Dyloject™. […] Adverse events (adverse effects) were recorded between surgery and randomization, not just after baseline, in order to distinguish treatment-emergent adverse events.\nThose who remained at the site longer assessed their pain every 3 hours until discharged. […] Adverse events (AEs) were recorded between surgery and randomization, not just after baseline, in order to distinguish treatment-emergent AEs."}, "[2]": {"tested_on": "acute moderate to severe pain after abdominal or pelvic surgery", "test": "Multiple-dose randomized double-blind active- and placebo-controlled trial after abdominal or pelvic surgery: efficacy (SPID, pain relief, rescue morphine, patient global evaluation)", "type": "in vivo, human", "experimental": "A 331 multicenter, multiple-dose, multiple-day, randomized, double-blind, parallel-group study was conducted on patients who had undergone abdominal or pelvic surgery. Patients were randomly assigned to 18.75 mg of diclofenac, 37.5 mg of diclofenac, 30 mg ketorolac, or placebo (1:1:1:1 ratio). The diclofenac formulation was Dyloject™. The patients selected for the study had moderate to severe pain within 6 hours postoperatively, defined as pain intensity of at least 50 mm on a 0-100 VAS.\nAt 16 U.S. sites, adults 18-65 years old were screened if they were scheduled for abdominal or pelvic surgery within 2 weeks. Key inclusion criteria were moderate-to-severe postoperative pain, defined as intensity≧50 mm on a 0-100 mm visual analog scale (VAS) within 6 hours after surgery, and weight>50 kg. Exclusion criteria were applied to the preoperative, intraoperative, and postoperative periods. Key preoperative exclusion criteria were a history of chronic disease or severe asthma, a recent (≦6 months) cardiovascular event or clinically-significant abnormal electrocardiogram (ECG) at screening, consumption of aspirin (except <325 mg/day for antiplatelet cardiac protection), opioids, other NSAIDs, other common analgesics, major and minor tranquilizers, or antihistamines≦24 hours before study drug initiation (except if administered during surgery), consumption of a monoamine oxidase inhibitor, tryptophan, carbamazepine, or valproate≦2 weeks before baseline, any clinically-significant laboratory abnormality, and previous or present peptic ulceration, gastrointestinal (GI) bleeding, or any bleeding diathesis. In addition, long-acting NSAIDs or COX-2 inhibitors were to be discontinued 3 days before surgery. Subjects were also excluded in the event of a known allergy to diclofenac, NSAIDs, morphine, anesthetics, or any excipient of the study preparation, receipt of any other investigational medication within 3 months prior to administration of the study drug, known or suspected alcohol or drug abuse, and unwillingness to remain in the clinical research center for 2 nights or return within 5-9 days for a safety follow-up visit. Female subjects with a positive pregnancy test within 24 hours of surgery or who were lactating at screening were also excluded. Intraoperative exclusion criteria were subcostal incision during surgery and concomitant use of NSAIDs or acetaminophen (other intraoperative medications were not restricted). Subjects with abnormal postoperative baseline ECG were excluded from study participation. In addition, patient-controlled analgesia (PCA) was not permitted before or during study drug dosing. Nitrous oxide and very short-acting barbiturates or benzodiazepines were allowed, provided that there was a ≧1.5-hour washout period before study drug administration, to avoid residual effects on pain intensity assessments. […] Postoperative regional anesthesia was not allowed.\nThis was a multicenter, multiple-dose, multiple-day, randomized, double-blind, active- and placebo-controlled, parallel-group phase 3 study. […] Assignments were made according to a computer-generated random-number code, and clinical staff and patients were blinded to study drug assignment. The first dose of study medication (1 mL IV bolus) was received by patients in all treatment arms within this first 6-hour period (Table 4).\nAdministration of the first dose of study drug was taken as time 0, and all subsequent dosing and evaluation time points were in relation to time of first study drug dose. Subsequent injections were received every 6 hours until discharge or until patient withdrawal/discontinuation from the study, due either to an adverse event (AE), inadequate pain control, noncompliance with the study protocol, or at the investigator's discretion. […]"}, "[3]": {"tested_on": "patients after abdominal or pelvic surgery", "test": "Abdominal or pelvic surgery trial: safety (adverse events, thrombophlebitis scale)", "type": "in vivo, human", "experimental": "Patients returned for a safety follow-up 5-9 days after baseline, and received a follow-up telephone call 30 days post-baseline. Safety assessments included physical examinations, laboratory testing, vital signs, 12-lead ECG, and evaluation of thrombophlebitis at the site of study drug injection using a 6-point scale (Table 5 and FIG. 6). AEs were recorded throughout the study.\nThe proportion of patients reporting ≧30% reduction from baseline in pain intensity was analyzed with the Cochran-Mantel-Haenszel test with center as a stratification variable. Time to meaningful (≧30%) reduction in pain intensity and time to administration of rescue medication were analyzed with Kaplan-Meier survival analysis techniques. Descriptive statistics were used for AEs, laboratory test results, vital signs, thrombophlebitis, and ECG results. Logistic regression was used to estimate the relative risk of cardiovascular events."}, "[4]": {"conditions": "cited from earlier work"}, "[5]": {"conditions": "diclofenac n = 145, ketorolac n = 60"}}, "note": "“And” between values parts separate entries of the source, which are not always exact repeats. Equal entries are not always repeated."}
{"smiles": "O=C(c1ccccc1)c1ccc2n1CCC2C(=O)O", "note": "(centres unmarked) [Ketorolac, ketorolac tromethamine]", "values": [{"measurement": "Acute Renal Failure/Renal Insufficiency", "setting": "[1]; [5]", "value": "0 n (%)"}, {"measurement": "Acute Tubular Necrosis", "setting": "[1]; [5]", "value": "0 n (%)"}, {"measurement": "Anemia", "setting": "[1]; [5]", "value": "9 (15.0%) n (%)"}, {"measurement": "Blood creatine phosphokinase (CPK) increase", "setting": "[1]; [5]", "value": "8 (13.3%) n (%)"}, {"measurement": "Constipation", "setting": "[1]; [5]", "value": "6 (10.0%) n (%)"}, {"measurement": "Contusion", "setting": "[1]; [5]", "value": "2 (3.3%) n (%)"}, {"measurement": "Dizziness", "setting": "[1]; [5]", "value": "5 (8.3%) n (%)"}, {"measurement": "Dysuria (burning, difficulty urinating)", "setting": "[1]; [5]", "value": "1 (1.7%) n (%)"}, {"measurement": "Epistaxis", "setting": "[1]; [5]", "value": "0 n (%)"}, {"measurement": "Fever/increase body temp.", "setting": "[1]; [5]", "value": "5 (8.3%) n (%)"}, {"measurement": "Nausea", "setting": "[1]; [5]", "value": "18 (30.0%) n (%)"}, {"measurement": "Total Bleeding related adverse events", "setting": "[1]; [5]", "value": "13 (21.7%) n (%)"}, {"measurement": "Total GI-Related Adverse Events", "setting": "[1]; [5]", "value": "24 (40.0%) n (%)"}, {"measurement": "Total Renal-Related Adverse Events", "setting": "[1]; [5]", "value": "1 (1.7%) n (%)"}, {"measurement": "Urinary Retention", "setting": "[1]; [5]", "value": "0 n (%)"}, {"measurement": "Vomiting", "setting": "[1]; [5]", "value": "6 (10.0%) n (%)"}, {"measurement": "incidence of bleeding-related adverse effects", "setting": "[1]; in vivo", "value": "23% and 22%"}, {"measurement": "serious cardiovascular event: congestive heart failure", "setting": "[1]; one of 60 patients, not considered treatment-related", "value": 1.7, "unit": "%"}, {"measurement": "Cumulative Amount of Rescue Medication, Mean (SD)", "setting": "[2]; 0 to 24 hours, 30 mg (N = 82)", "value": "6.7 (7.74) mg"}, {"measurement": "Opioid sparing vs. placebo", "setting": "[2]; 0 to 24 hours, 30 mg (N = 82)", "value": 40, "unit": "%"}, {"measurement": "Cumulative Amount of Rescue Medication, Mean (SD)", "setting": "[2]; 0 to 48 hours, 30 mg (N = 82)", "value": "8.5 (10.00) mg"}, {"measurement": "Opioid sparing vs. placebo", "setting": "[2]; 0 to 48 hours, 30 mg (N = 82)", "value": 46, "unit": "%"}, {"measurement": "Cumulative Amount of Rescue Medication, Mean (SD)", "setting": "[2]; 0 to 72 hours, 30 mg (N = 82)", "value": "8.5 (10.04) mg"}, {"measurement": "Opioid sparing vs. placebo", "setting": "[2]; 0 to 72 hours, 30 mg (N = 82)", "value": 47, "unit": "%"}, {"measurement": "Cumulative Amount of Rescue Medication, Mean (SD)", "setting": "[2]; 0 to 72 hours, 30 mg (N = 82), listed as ketorolac", "value": 8.5, "unit": "mg"}, {"measurement": "Sum of the Pain Intensity Differences Over 0-48 Hours, Mean", "setting": "[2]; 30 mg (N = 82)", "value": 1583.2, "unit": "mm·hours"}, {"measurement": "patients with at least a 30% reduction in pain intensity", "setting": "[2]; at 45 minutes after study drug initiation, 30 mg", "value": 57, "unit": "%"}, {"measurement": "patients with ≧30% reduction in pain intensity", "setting": "[2]; during the first 6-hour dosing period, 30 mg", "value": 76.8, "unit": "%"}, {"measurement": "incidence of bleeding-related AEs", "setting": "[3]; 30 mg", "value": 6.1, "unit": "%"}, {"measurement": "incidence of cardiovascular AEs", "setting": "[3]; 30 mg", "value": 6.1, "unit": "%"}, {"measurement": "incidence of treatment-related AEs", "setting": "[3]; 30 mg", "value": 23.2, "unit": "%"}, {"measurement": "Abdominal Hematoma", "setting": "[3]; 30 mg (n = 82)", "value": "1 (1.2%) n (%)"}, {"measurement": "Bleeding-related AE: Anemia", "setting": "[3]; 30 mg (n = 82)", "value": "2 (2.4%) n (%)"}, {"measurement": "Blood Creatine phosphokinase (CPK) increased", "setting": "[3]; 30 mg (n = 82)", "value": "12 (14.6%) n (%)"}, {"measurement": "Constipation", "setting": "[3]; 30 mg (n = 82)", "value": "8 (9.8%) n (%)"}, {"measurement": "Diarrhea", "setting": "[3]; 30 mg (n = 82)", "value": "6 (7.3%) n (%)"}, {"measurement": "Flatulence", "setting": "[3]; 30 mg (n = 82)", "value": "22 (26.8%) n (%)"}, {"measurement": "Headache", "setting": "[3]; 30 mg (n = 82)", "value": "14 (17.1%) n (%)"}, {"measurement": "Hematoma", "setting": "[3]; 30 mg (n = 82)", "value": "0 (0.0%) n (%)"}, {"measurement": "Incision site complication", "setting": "[3]; 30 mg (n = 82)", "value": "0 (0.0%) n (%)"}, {"measurement": "Injection site pain, irritation", "setting": "[3]; 30 mg (n = 82)", "value": "17 (20.7%) n (%)"}, {"measurement": "Insomnia", "setting": "[3]; 30 mg (n = 82)", "value": "7 (8.5%) n (%)"}, {"measurement": "Nausea", "setting": "[3]; 30 mg (n = 82)", "value": "22 (26.8%) n (%)"}, {"measurement": "Number of patients experiencing ≧1 AE", "setting": "[3]; 30 mg (n = 82)", "value": "72 (87.8%) n (%)"}, {"measurement": "Pruritus", "setting": "[3]; 30 mg (n = 82)", "value": "3 (3.7%) n (%)"}, {"measurement": "Pyrexia", "setting": "[3]; 30 mg (n = 82)", "value": "9 (11.0%) n (%)"}, {"measurement": "Rectal Hemorrhage", "setting": "[3]; 30 mg (n = 82)", "value": "1 (1.2%) n (%)"}, {"measurement": "Tachycardia", "setting": "[3]; 30 mg (n = 82)", "value": "4 (4.9%) n (%)"}, {"measurement": "Thrombophlebitis", "setting": "[3]; 30 mg (n = 82)", "value": "6 (7.3%) n (%)"}, {"measurement": "Total patients with a Bleeding-Related AE", "setting": "[3]; 30 mg (n = 82)", "value": "5 (6.1%) n (%)"}, {"measurement": "Vaginal Hemorrhage", "setting": "[3]; 30 mg (n = 82)", "value": "0 (0.0%) n (%)"}, {"measurement": "Vomiting", "setting": "[3]; 30 mg (n = 82)", "value": "7 (8.5%) n (%)"}, {"measurement": "Wound complication", "setting": "[3]; 30 mg (n = 82)", "value": "1 (1.2%) n (%)"}, {"measurement": "Wound dehiscence", "setting": "[3]; 30 mg (n = 82)", "value": "1 (1.2%) n (%)"}, {"measurement": "Total Patients on Concomitant Anticoagulants with a Bleeding-Related AE", "setting": "[3]; 30 mg, 49 on anticoagulants", "value": "3 (6.1%) n (%)"}, {"measurement": "subjects reporting ≧1 bleeding-related AE among subjects receiving anticoagulants", "setting": "[3]; ketorolac group (3/49), post hoc analysis", "value": 6.1, "unit": "%"}, {"measurement": "Vd, volume of distribution", "setting": "[4]", "value": 0.21, "unit": "L/kg"}, {"measurement": "Prot. bind., drug fraction bound to protein (fP)", "setting": "[4]; plasma", "value": 99, "unit": "%"}, {"measurement": "Cmax", "setting": "[4]; read-out: Cmax, maximum drug concentration in plasma, based on the drug's pharmacokinetics and administration of a normal drug dose", "value": 1800, "unit": "nM"}]}
